# Patent US9790253B2, “OSW-1 analogs and conjugates, and uses thereof” (priority 2011, dated 2017)
# Key:
# [1] = tested on: HCT-116 p21^−/− cells with OSBP1-targeting shRNA; test: OSBP1 shRNA knockdown/dose-shift experiment; assay type: cell-based, human; conditions: shOSBP1 vs shNT, 72 h
# Excerpt: FIG. 3A is a series of four bar graphs depicting knockdown/dose-shift experiment in HCT-116 p21^−/− cells stably transfected with either OSBP1-targeting shRNA (shOSBP1) or non-targeting shRNA (shNT). Bars represent s.d. of three or four individual experiments. * P=0.0002 (n=3); ** P=0.0006 (n=4); *** P=0.0003 (n=3) compared to shNT cells (two-tailed students t-test).
# To ascertain if the antiproliferative activity of the ORPphilins depended on the levels of OSBP1 and ORP4L in cells, short hairpin RNA (shRNA) knockdown of OSBP1 expression was performed and then its effect on the growth inhibitory activity of 1, 2, and 4a measured. […] Similar results were obtained in HeLa cells. Overexpression of OSBP1-myc-his or ORP4L-myc-his (FIG. 3C) for 48 h desensitized HeLa cells to the antiproliferative activity of 1, 2, or 4a by ˜2-5-fold (FIG. 3D). However, taxol-induced growth inhibition was not affected by overexpression of OSBP1-myc-his or ORP4L-myc-his (FIG. 3D).
# [2] = target: T1, OSBP1(M446W) (Homo sapiens, UniProt P22059, M446W); test: [3H]-25-OHC binding, OSBP1(M446W) mutant; conditions: for binding affinity for OSBP1(M446W) compared to wt OSBP1-myc-his: [3H]-25-OHC competition binding
# T1 construct: made in house; host or cells: HEK-293T (transient transfection; S100 lysate, not purified)
# T1 sequence (P22059 1-807 M446W): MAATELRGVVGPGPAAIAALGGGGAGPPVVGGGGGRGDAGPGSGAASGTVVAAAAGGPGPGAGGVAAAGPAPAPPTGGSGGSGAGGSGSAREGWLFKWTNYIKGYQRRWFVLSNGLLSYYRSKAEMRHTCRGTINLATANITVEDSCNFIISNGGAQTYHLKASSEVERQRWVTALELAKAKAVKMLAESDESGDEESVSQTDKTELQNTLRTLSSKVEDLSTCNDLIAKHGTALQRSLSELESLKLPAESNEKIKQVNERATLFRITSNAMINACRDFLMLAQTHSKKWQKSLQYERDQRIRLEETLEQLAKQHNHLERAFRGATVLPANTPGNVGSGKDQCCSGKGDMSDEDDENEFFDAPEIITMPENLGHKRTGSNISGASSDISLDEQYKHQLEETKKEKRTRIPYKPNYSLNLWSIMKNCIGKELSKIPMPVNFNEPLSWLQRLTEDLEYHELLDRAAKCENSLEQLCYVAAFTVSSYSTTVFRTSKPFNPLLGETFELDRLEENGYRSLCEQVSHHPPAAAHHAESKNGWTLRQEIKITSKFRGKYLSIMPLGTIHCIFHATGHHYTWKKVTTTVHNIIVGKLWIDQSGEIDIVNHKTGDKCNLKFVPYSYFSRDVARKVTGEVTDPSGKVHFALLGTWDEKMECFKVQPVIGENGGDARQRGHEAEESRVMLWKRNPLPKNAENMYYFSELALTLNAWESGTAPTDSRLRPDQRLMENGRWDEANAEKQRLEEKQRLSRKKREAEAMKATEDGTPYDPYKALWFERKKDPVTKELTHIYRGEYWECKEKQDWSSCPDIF
# Protocol: [^3H]-25-Hydroxycholesterol charcoal-dextran binding assay.
# The binding affinity of 1, 2 and 4a to the OSBP1(M446W) and OSBP1(V582M) mutants were then determined using [^3H]-25-OHC competition binding. […] Within error limits, the binding affinity of 1, 2 and 4a for these two OSBP1 mutants were unchanged compared to wt OSBP1-myc-his (FIG. 4D).
# [3] = tested on: NCI-60; conditions: read-out: average GI50 against the NCI-60; cited from earlier work
# [4] = target: T2, ORP4L-myc-his (Homo sapiens, UniProt Q969R2); test: [3H]-25-hydroxycholesterol charcoal-dextran binding assay with ORP4L-myc-his; conditions: for Ki: read-out: [^3H]-25-OHC K1 (nM) ORP4L-myc-his, competition with 20 nM [3H]-25-OHC, HEK-293T S100 lysate, 4° C., 16 h; for fold lower affinity for ORP4L than for OSBP1: ratio of Ki values
# T2 sequence (Q969R2 1-916): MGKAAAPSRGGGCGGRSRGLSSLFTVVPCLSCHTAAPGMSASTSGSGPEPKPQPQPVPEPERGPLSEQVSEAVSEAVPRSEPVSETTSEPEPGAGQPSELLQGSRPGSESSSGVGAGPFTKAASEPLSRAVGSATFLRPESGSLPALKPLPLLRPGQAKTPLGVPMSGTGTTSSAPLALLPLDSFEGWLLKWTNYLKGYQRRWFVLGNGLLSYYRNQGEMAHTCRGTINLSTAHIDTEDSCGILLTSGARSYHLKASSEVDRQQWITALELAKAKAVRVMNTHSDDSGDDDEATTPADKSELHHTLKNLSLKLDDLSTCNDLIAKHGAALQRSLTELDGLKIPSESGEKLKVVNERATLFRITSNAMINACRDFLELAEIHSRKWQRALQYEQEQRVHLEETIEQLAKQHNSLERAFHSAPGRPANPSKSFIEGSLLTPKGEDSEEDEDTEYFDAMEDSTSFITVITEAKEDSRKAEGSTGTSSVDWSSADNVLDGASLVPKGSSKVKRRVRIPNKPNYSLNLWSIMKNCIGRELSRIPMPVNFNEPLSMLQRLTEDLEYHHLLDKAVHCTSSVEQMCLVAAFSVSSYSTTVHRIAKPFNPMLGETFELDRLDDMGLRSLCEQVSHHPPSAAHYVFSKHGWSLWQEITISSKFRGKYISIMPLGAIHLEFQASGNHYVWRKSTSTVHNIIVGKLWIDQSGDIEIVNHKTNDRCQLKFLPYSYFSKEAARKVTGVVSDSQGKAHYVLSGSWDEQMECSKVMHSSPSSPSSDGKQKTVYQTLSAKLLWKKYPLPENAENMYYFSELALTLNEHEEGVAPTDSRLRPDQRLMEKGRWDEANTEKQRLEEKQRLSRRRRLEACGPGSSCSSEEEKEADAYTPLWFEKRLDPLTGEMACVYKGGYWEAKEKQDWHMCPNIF
# Protocol: [^3H]-25-Hydroxycholesterol charcoal-dextran binding assay. […] These vectors were transfected into HEK-293T cells using Lipofectamine™2000 (Invitrogen), and 48 h after transfection, on-plate lysis of the transfected cells with the M-Per®/HALT™ with EDTA (ThermoScientific) reagent was performed, followed by ultracentrifugation at 100,000 g. The S100 lysate was diluted to 0.2 mg/mL, aliquoted and stored at −80° C. until use. The HEK-293T OSBP1-, ORP4L- or lacZ-myc-his lysate was incubated with [^3H]-25-hydroxycholesterol at 4° C. for 16 h in 96-well plates. After incubation, charcoal/dextran (C/D) was added to the wells for 30 min of shaking at RT, followed by centrifugation for 15 min at 1900 g to pellet the C/D. The C/D-cleared lysate was added to MicroScint™-20 (PerkinElmer) scintillation fluid, and the remaining protein-bound radiolabel was quantified using a TopCount™ scintillation counter. [^3H]-25-hydroxycholesterol binding curves and competition curves were repeated at least three times.
# Lysates were thawed on ice, with brief periods of hand warming. Both the ^3H-25-OHC direct binding assays and the ^3H-25-OHC competition binding assays were set up similarly, with a large stock of binding assay lysate being prepared, then 73.5 μL of the binding assay mixture dispensed using a multi-channel pipettor into “V”-shaped 96-well plates. For the ^3H-25-OHC direct binding assay, 1.5 μL of ^3H-25-OHC and ^3H-25-OHC/40×25-OHC added to the wells in dilutions in 100% ethanol. For the ^3H-25-OHC competition binding assays, ^3H-25-OHC was added to the large stock of binding assay lysate to a final concentration of 20 nM. This ^3H-25-OHC-containing binding lysate was then dispensed using a multi-channel pipettor into the 96-well plates. Then, 1.5 μL of a serial dilution of the inhibitors in either 100% ethanol (25-OHC) or DMSO (the ORPphilins) was added to each well.
# The binding lysate used in each well of the 96-well plate consisted of 60 μL of 0.2 mg/mL S100 lysate, 7.5 μL 20% PVA, and 5.6 μL 2M KCl. For ^3H-25-OHC binding curve experiments, 0.4 μL of buffer was then added (total volume per well: 73.5 μL). For the ^3H-25-OHC inhibition competition assays, 0.11 μL of 13.2 μM ^3H-25-OHC and 0.29 μL binding buffer was added for each well (total volume per well: 73.5 μL).
# Binding assays were incubated, standing, for 16 h at 4° C. Then 30 μL of the rt C/D solution was multichannel pipetted into new “V’ shaped 96-well plates, and 60 μL of the binding lysate mixture was then added. The plates were briefly, lightly vortexed (˜10 sec), 10 and then rocked at 250 rpm for 30 min at rt. The plates were then centrifuged at 1900 g for 15 min at 4° C. in Microplate Carriers (Sorvall cat. #75006449S) in a Sorvall Legend RT centrifuge. Carefully so as to not disturb the C/D pellet, 30 μL of the supernatant was transferred to 170 μL of Microscint-20 in the OptiPlates. The plates were sealed with the TopSealA-Films, and vigorously vortexed (max speed, >1 min). ^3H-25-OHC detection in the wells was then performed using a TopCount Scintillation detector, counting each well for 2 min. Data was graphed and analyzed using GraphPad PrismS, using non-linear regression to determine KD and K1 values.
# Binding experiments were performed at 4° C. for 16 h. Unbound sterol was removed using dextran-coated charcoal, and protein-bound sterol left in the supernatant was quantified by scintillation counting. Ki-values were determined as mean±s.d. from at least three independent experiments.
Molecule,sensitization by OSBP1 knockdown (GI50 shift) [1] [fold],binding affinity for OSBP1(M446W) compared to wt OSBP1-myc-his [2],GI50 [3] [nM],Ki [4] [nM],fold lower affinity for ORP4L than for OSBP1 [4],fold lower affinity for ORP4L than for OSBP1 ([4]; listed as 4a) [fold],binding affinity of 25-OHC for OSBP1(M446W) compared to wt [2],"Kd ([4]; read-out: Kd of [3H]-25-hydroxycholesterol, ORP4L, direct binding) [nM]"
COc1ccc(C(=O)O[C@H]2[C@H](O[C@@H]3[C@@H](OC(C)=O)[C@H](O[C@H]4C[C@H]5[C@@H]6CC=C7C[C@@H](O)CC[C@]7(C)[C@H]6CC[C@]5(C)[C@@]4(O)[C@H](C)C(=O)CCC(C)C)OC[C@@H]3O)OC[C@@H](O)[C@@H]2O)cc1 [OSW-1],6,unchanged,0.78,54 ± 11,–,–,–,–
schweinfurthin A,9,unchanged,360,2600 ± 570,approximately 40 fold,~40,–,–
"C[C@@H]1[C@]2(O[C@H]3C=C4[C@@H]5CC[C@H]6Cc7nc8c(nc7C[C@]6(C)[C@H]5C[C@@H](O)[C@]4(C)[C@]31O)C[C@@H]1CC[C@H]3C4=CC[C@@H]5[C@H](C)[C@@]6(OC[C@]45C(=O)C[C@@H]3[C@@]1(C)C8)OC(C)(C)C[C@H]6O)O[C@](C)(CO)C[C@H]2O [cephalostatin 1, Cephalostatin 1]",4,unchanged,–,78 ± 15,–,–,–,–
"C[C@H](CCCC(C)(C)O)[C@H]1CC[C@H]2[C@@H]3CC=C4C[C@@H](O)CC[C@]4(C)[C@H]3CC[C@]12C [Compound 25-OHC, 25-hydroxycholesterol]",–,–,–,–,–,–,identical to wt,54 ± 23
